Laboratory results reported in patent US4517180A, “Peptides, process for preparing the same and psychodepressant compositions containing the same” (Amano Pharmaceutical Co., Ltd, priority 1982, dated 1985).
“Also recorded” adds a separate entry of the source.

Legend:
[1] = test system: Male ddy mice; test: Effect on climbing behavior induced by apomorphine (Pharmacological Test 2); format: in vivo; parameters: key to Average: Mean ± S.E. (total of 7 scores), climbing behavior: sum of 7 scores; 0 = all four legs on floor, 2 = ≥3 legs on rods; details: for Average: Mean ± S.E. (total of 7 scores), climbing behavior: 30 min before apomorphine 0.75 mg/kg s.c., control 9.8 ± 0.7
Description: (§1) Effect on climbing behavior induced by apomorphine
Male ddy mice (weighing 20 to 30 g) were used, with 10 mice in each group. Each mouse was placed into a cylindrical cage, 12 cm in diameter and 14 cm in height, made up of vertical rods of 2 mm in diameter spaced apart at a distance of 10 mm in a circular arrangement. The mouse was allowed to stand therein for 2 hours. Peptide A, peptide B, CCK-8 or, as a control, the above-mentioned diluent was subcutaneously given to the animal, and 30 minutes later, 0.75 mg/kg of apomorphine was subcutaneously given. […] The test was carried out in soundproof compartments.
(§2) 0: All the four legs are on the floor.
(§3) 2: At least three legs are on rods.
Student's t-test was resorted to for statistical treatment.

[2] = test system: male Wister rats; test: Effect on metabolism of amine in the brain; format: in vivo
Description: Effect on metabolism of amine in the brain
Unfasted male Wister rats (weighing 180 to 220 g) were used. Peptide A or peptide B was subcutaneously given to the animal at a dose of 1 mg/kg, the head was irradiated with microwave 1 hour thereafter, and amine metabolite was extracted from the brain. First, removed tissues were homogenized with 1M formic acid and centrifuged at 20,000×g for 20 minutes, and the supernatant (1 ml) was shaken with 5 ml of ethyl acetate. The 3,4-dihydroxyphenylacetic acid (DOPAC), homovanillic acid (HVA) and 5-hydroxyindoleacetic acid (5-HIAA) in the ethyl acetate layer were analyzed by high-performance liquid chromatography under the following conditions. Chemcosorb, 5-ODS, 20 cm×4.6 mm I.D. was used for a separating column, and a mobile phase (0.1M KH2 PO4 (pH 5.0)-5 mM EDTA-2Na-5% acetonitrile) was passed through the colunn at a flow rate of 1 ml/min. The electrochemical detector was set to an oxidation potential of +0.8 V.

[3] = test system: male Wister rats; test: Effect on yawning behavior induced by apomorphine; format: in vivo
Description: Effect on yawning behavior
Male Wister rats (weighing 200 to 300 g) were used, with 10 rats in each group. The rat was placed into a plastics cage (17×24×12 cm) with a floor mat and was then habituated for 30 minutes. Peptide A, peptide B, CCK-8 or the above-mentioned diluent serving as a control was subcutaneously given to the animal. Thirty minutes thereafter, 0.03 mg/kg of apomorphine was subcutaneously given to the animal. The number of yawns induced by apomorphine was counted during a period of 30 minutes following administration of apomorphine. The test was conducted in a soundproof compartment for each animal. Wilcoxon rank-sum test was resorted to for statistical treatment.

[4] = test system: male Wister rats; test: Effect on the fixed ratio (FR20) responding in rats; format: in vivo; details: s.c., 15 min before 20 min session, dose giving count 50 with control as 100
Description: Effect on the fixed ratio responding in rats
The test was conducted according to the method described in Ahlenius S. and Engel J., Eur. J. Pharm., Vol. 15, 187-192 (1971).
Male Wister rats (weighing 240 to 320 g) were placed into Skinner box (product of Bil-Medika Co., Ltd., Japan, adapted to give a feed when a lever within the box is pressed) and made to learn how to take the food. In this test, one feed was given to the rats when the lever was pressed 20 times, i.e., fixed ratio (FR) 20. The rats showing stable FR20 response were divided into groups each including four rats.
Physiological saline (containing 1 mM of sodium hydrogencarbonate) containing a specified amount of a test compound was subcutaneously given to the rats of one group in a volume of 0.1 ml/100 g. (Physiological saline containing the above-mentioned amount of sodium hydrogencarbonate only was given to the control group). Fifteen minutes after the administration, the test animals were placed in the Skinner box, and the number of times the animals took the feed for 20 minutes was counted. The dose at which the count gained by the group of animals was 50, namely, ED50 value, was determined, with the count gained by the control group calculated as 100. The same procedure as above was repeated with use of the other test compounds.

[5] = test system: Male ICR mice; test: Inhibitory effect on hyperlocomotion induced by administration of methylphenidate; format: in vivo; details: s.c. with methylphenidate 10 mg/kg s.c., measured 1 hour after, 50 with control as 100
Description: Inhibitory effect on hyperlocomotion induced by administration of methylphenidate
Male ICR mice (weighing 24 to 30 g) were divided into groups, each including 10 mice. To one group of mice were subcutaneously given 10 mg/kg of methylphenidate and 0.1 ml/10 g of a saline solution of a specified amount of a test compound and 1 mM of sodium hydrogencarbonate. One hour after the administration, the test animals were checked for hyperlocomotion, which was measured with use of a device for measuring locomotion of small animals (wherein the motion of an animal shifts the center of graavity of the device to actuate a microswitch for the measurement of the amount of motion, see Folia Pharmacologica Japonica, 74, 629-639 (1978). For a control group, the same procedure as above was repeated except that the saline solution given was free from any test compound. The concentration of the test compound at which the result achieved by the group of animals was 50, namely, ED50 value, was determined, with the measurement obtained by the control group calculated as 100. The other compounds were tested in the same manner as above.

[6] = test system: Male ddy mice; test: Effect on climbing behavior induced by apomorphine (Pharmacological Test 7); format: in vivo; parameters: key: sum of 7 scores; each 0 = four legs on floor, 2 = ≥3 legs on rods; details: control 9.8 ± 0.7
Description: as §1
Male ddy mice (weighing 20 to 30 g) were used, with 10 mice in each group. Each mouse was placed into a cylindrical cage, 12 cm in diameter and 14 cm in height, made up of vertical rods of 2 mm in diameter spaced apart at a distance of 10 mm in a circular arrangement. The mouse was allowed to stand therein for 2 hours. Physiological saline containing a specified amount of a test compound (and 1 mM of sodium hydrogencarbonate) was subcutaneously given to one group of mice in a volume of 1 ml/10 g. (The same dose of saline only was given to a control group). […] The test was carried out in soundproof compartments.
as §2, §3
The other compounds were tested in the same manner as above. The test was carried out in soundproof compartments. Student's t-test was resorted to for statistical treatment.

[7] = Induction of yawning behavior; details: in vivo
[8] = test system: test animals; test: Induction of catalepsy in test animals; format: in vivo

In the case of CSCC[C@H](NC(=O)[C@H](Cc1ccc(OS(=O)(=O)O)cc1)NC(=O)[C@@H](N)CC(=O)O)C(=O)NCC(=O)N[C@@H](Cc1c[nH]c2ccccc12)C(=O)N[C@@H](CCSC)C(=O)N[C@@H](CC(=O)O)C(=O)N[C@@H](Cc1ccccc1)C(N)=O [CCK-8, Asp--Tyr(SO3 H)--Met--Gly--Trp--Met--Asp--Phe--NH2, reference compound], the “Average: Mean ± S.E. (total of 7 scores), climbing behavior” value (“Average: Mean ± S.E. (total of 7 scores)” below) ([1]; 0.01 mg/kg s.c.) was 10.2 ± 0.7, the “Average: Mean ± S.E. (total of 7 scores)” value ([1]; 0.1 mg/kg s.c.) was 11.4 ± 0.6 and the “Average: Mean ± S.E. (total of 7 scores)” value ([1]; 1 mg/kg s.c.) was 9.5 ± 1.0. The “Effect on apomorphine-induced climbing behavior (in words)” value ([1]; mice, s.c.) was “little or no influence on the climbing behavior; also recorded: does not inhibit this behavior”, the “Acceleration of the metabolism of dopamine in the brain of rats (in words)” value [2] was “does not accelerate the metabolism of dopamine” and the “Number of yawns (average)” value ([3]; 1 mg/kg s.c., 30 min before apomorphine 0.03 mg/kg s.c., counted 30 min, control 4.5) was 4.9. For the same compound, the “Effect on yawning behavior induced by apomorphine (in words)” value ([3]; rats, s.c.) was “not inhibited”, the “ED50, inhibition of FR20 responding” value [4] was 0.0221 mg/kg and the “ED50, inhibition of methylphenidate-induced hyperlocomotion” value [5] was 0.5125 mg/kg. The “Average: Mean ± S.E. (total of 7 scores)” value ([6]; 0.01 mg/kg s.c.) was 10.2 ± 0.7, the “Average: Mean ± S.E. (total of 7 scores)” value ([6]; 0.1 mg/kg s.c.) was 11.4 ± 0.6 and the “Average: Mean ± S.E. (total of 7 scores)” value ([6]; 1.0 mg/kg s.c.) was 9.5 ± 1.0. The “Induction of yawning behavior (thought to be induced by a reduction in the amount of dopamine)” value [7] was “induces no yawning behavior whatsoever” and the “Induction of catalepsy (side effect)” value [8] was “induces catalepsy”.
